Experimental findings from ChEMBL document CHEMBL4840380, “The Psychedelic Renaissance: Addressing Potential Adverse Effects in a Therapeutic Setting” (ACS Med Chem Lett, 2021) are described below.

Assay [1] concerns the target 5-hydroxytryptamine receptor 2A (Homo sapiens) (UniProt P28223). Nature of the assay: Agonist activity at 5HT2A receptor (unknown origin) expressed in HEK293 cells assessed as maximal effect by FLIPR calcium flux assay relative to control. It counts as functional, cell-based. Conditions: filed as agonist.
The test system of assay [2] is Mus musculus. Nature of the assay: Antipsychotic activity in sc dosed C57BL/6 mouse assessed as DOI-induced head twitching observed for 20 mins. The format is functional, organism-based. Conditions: dose 1-100 mg/kg.

Sequence of 5-hydroxytryptamine receptor 2A (Homo sapiens) (P28223 whole entry): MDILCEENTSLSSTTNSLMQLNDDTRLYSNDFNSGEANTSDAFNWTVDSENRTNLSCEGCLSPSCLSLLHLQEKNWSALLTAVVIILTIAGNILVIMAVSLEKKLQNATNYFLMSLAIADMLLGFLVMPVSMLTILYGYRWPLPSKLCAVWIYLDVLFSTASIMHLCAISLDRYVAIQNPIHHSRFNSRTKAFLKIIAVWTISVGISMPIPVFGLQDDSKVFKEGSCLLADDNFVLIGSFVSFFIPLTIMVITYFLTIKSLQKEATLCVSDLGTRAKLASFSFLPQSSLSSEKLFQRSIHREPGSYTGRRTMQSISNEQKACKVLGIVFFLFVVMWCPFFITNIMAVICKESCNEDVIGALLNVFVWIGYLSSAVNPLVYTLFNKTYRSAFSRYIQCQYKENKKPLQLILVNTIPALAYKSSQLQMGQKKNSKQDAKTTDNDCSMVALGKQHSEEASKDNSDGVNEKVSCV

On to `CCN(C)CCc1c[nH]c2ccc(F)cc12`, for which, in assay [1], the Emax worked out at 87.6%. Further, the Activity entry in assay [2] was “Dose-Dependent Effect”.

In the case of `CN(C)CCc1c[nH]c2ccccc12`, in assay [1], the Emax came to 93.4%.

Turning to `CCCN(CC)CCc1c[nH]c2ccc(F)cc12`, the Emax in assay [1] came to 104%. Further, in assay [2], the Activity result is “Dose-Dependent Effect”.
